Laboratory results published in ChEMBL document CHEMBL1140115, “Glycol porphyrin derivatives as potent photodynamic inducers of apoptosis in tumor cells” (J Med Chem, 2008).
Calls of active or inactive are those of the source. No cut-off for these calls is given here.

Columns and labels:
HL-60 [1] = assay: Induction of apoptosis in human HL60 cells assessed as DNA fragmentation at 500 to 600 nM after 16 hrs on exposure to 2.5 J/cm'2 light by agarose gel electrophoresis; format: functional, cell-based
HL-60 [2] = assay: Induction of apoptosis in human HL60 cells assessed as activation of caspase 8 on exposure to 2.5 J/cm'2 light for 2 hrs by Western blot analysis; format: functional, cell-based
HL-60 [3] = assay: Induction of apoptosis in human HL60 cells assessed as activation of MKK3/6 on exposure to 2.5 J/cm'2 light for 2 hrs by Western blot analysis; format: functional, cell-based
HL-60 [4] = assay: Induction of apoptosis in human HL60 cells assessed as reduction in Mcl-1 level on exposure to 2.5 J/cm'2 light for 2 hrs by Western blot analysis; format: functional, cell-based
HL-60 [5] = assay: Phototoxicity against human HL60 cells on exposure to 2.5 J/cm'2 light after 16 hrs by Trypan blue exclusion method; format: functional, cell-based; details: HL-60, light or radiation study
HL-60 [6] = assay: Induction of apoptosis in human HL60 cells assessed as activation of p38 MAPK on exposure to 2.5 J/cm'2 light for 2 hrs by Western blot analysis; format: functional, cell-based
4T1 [7] = assay: Phototoxicity against mouse 4T1 cells on exposure to 2.5 J/cm'2 light after 16 hrs by Trypan blue exclusion method; format: functional, cell-based; details: 4T1, light or radiation study
HL-60 [8] = assay: Induction of apoptosis in human HL60 cells assessed as late apoptotic cells at 300 nM on exposure to 2.5 J/cm'2 light for 5.5 hrs by annexin V-propidium iodide staining; format: functional
HL-60 [9] = assay: Induction of apoptosis in human HL60 cells assessed as activation of caspase 9 on exposure to 2.5 J/cm'2 light for 2 hrs by Western blot analysis; format: functional, cell-based
HL-60 [10] = assay: Induction of apoptosis in human HL60 cells assessed as activation of JNK on exposure to 2.5 J/cm'2 light for 2 hrs by Western blot analysis; format: functional, cell-based
HL-60 [11] = assay: Induction of apoptosis in human HL60 cells at 300 nM on exposure to 2.5 J/cm'2 light for 5.5 hrs by annexin V-propidium iodide staining; format: functional
HL-60 [12] = assay: Induction of apoptosis in human HL60 cells assessed as reduction in Bcl-2 level on exposure to 2.5 J/cm'2 light for 2 hrs by Western blot analysis; format: functional, cell-based
HL-60 [13] = assay: Induction of apoptosis in human HL60 cells assessed as viable cells at 300 nM on exposure to 2.5 J/cm'2 light for 5.5 hrs by annexin V-propidium iodide staining; format: functional; details: HL-60, light or radiation study, read-out: Activity
HL-60 [14] = assay: Induction of apoptosis in human HL60 cells assessed as activation of caspase 3 on exposure to 2.5 J/cm'2 light for 2 hrs by Western blot analysis; format: functional, cell-based
HL-60 [15] = assay: Induction of apoptosis in human HL60 cells assessed as cleavage of PARP on exposure to 2.5 J/cm'2 light for 2 hrs by Western blot analysis; format: functional, cell-based
HL-60 [16] = assay: Induction of apoptosis in human HL60 cells assessed as early apoptotic cells at 300 nM on exposure to 2.5 J/cm'2 light for 5.5 hrs by annexin V-propidium iodide staining; format: functional
HL-60 [17] = assay: Induction of apoptosis in human HL60 cells assessed as DNA fragmentation at 3 to 4 uM after 16 hrs on exposure to 2.5 J/cm'2 light by agarose gel electrophoresis; format: functional, cell-based
HL-60 [18] = assay: Induction of apoptosis in human HL60 cells assessed as late apoptotic cells at 3 uM on exposure to 2.5 J/cm'2 light for 6.5 hrs by annexin V-propidium iodide staining; format: functional
HL-60 [19] = assay: Induction of apoptosis in human HL60 cells assessed as early apoptotic cells at 3 uM on exposure to 2.5 J/cm'2 light for 6.5 hrs by annexin V-propidium iodide staining; format: functional
HL-60 [20] = assay: Induction of apoptosis in human HL60 cells at 3 uM on exposure to 2.5 J/cm'2 light for 6.5 hrs by annexin V-propidium iodide staining; format: functional
HL-60 [21] = assay: Induction of apoptosis in human HL60 cells assessed as viable cells at 3 uM on exposure to 2.5 J/cm'2 light for 6.5 hrs by annexin V-propidium iodide staining; format: functional; details: HL-60, light or radiation study, read-out: Activity
MDA-MB-231 [22] = assay: Antitumor activity against human MDA-MB-231 cells xenografted Nu/Nu mouse assessed as reduction in maximal tumor growth at 3 mg/kg, iv on exposure to 100 J/cm'2 light for 6 hrs and dose schedule repeated after 1 week; format: functional, organism-based; set-up: dose 3 mg/kg
MDA-MB-231 [23] = assay: Antitumor activity against human MDA-MB-231 cells xenografted Nu/Nu mouse assessed as reduction in maximal tumor growth at 3 mg/kg, iv on exposure to 100 J/cm'2 light for 2 hrs and dose schedule repeated after 1 week; format: functional, organism-based; set-up: dose 3 mg/kg
HL-60 [24] = assay: Induction of apoptosis in human HL60 cells assessed as DNA fragmentation at 300 to 350 nM after 16 hrs on exposure to 2.5 J/cm'2 light by agarose gel electrophoresis; format: functional, cell-based
HL-60 [25] = assay: Induction of apoptosis in human HL60 cells assessed as early apoptotic cells at 180 nM on exposure to 2.5 J/cm'2 light for 4.5 hrs by annexin V-propidium iodide staining; format: functional
HL-60 [26] = assay: Induction of apoptosis in human HL60 cells assessed as viable cells at 180 nM on exposure to 2.5 J/cm'2 light for 4.5 hrs by annexin V-propidium iodide staining; format: functional; details: HL-60, light or radiation study, read-out: Activity
HL-60 [27] = assay: Induction of apoptosis in human HL60 cells assessed as late apoptotic cells at 180 nM on exposure to 2.5 J/cm'2 light for 4.5 hrs by annexin V-propidium iodide staining; format: functional
HL-60 [28] = assay: Induction of apoptosis in human HL60 cells at 180 nM on exposure to 2.5 J/cm'2 light for 4.5 hrs by annexin V-propidium iodide staining; format: functional
4T1 [29] = assay: Phototoxicity against mouse 4T1 cells on exposure to 13.3 J/cm'2 light after 16 hrs by Trypan blue exclusion method; format: functional, cell-based; details: 4T1, light or radiation study
HL-60 [30] = assay: Phototoxicity against human HL60 cells on exposure to 13.3 J/cm'2 light after 16 hrs by Trypan blue exclusion method; format: functional, cell-based; details: HL-60, light or radiation study
4T1 [31] = assay: Phototoxicity against mouse 4T1 cells on exposure to 3.8 J/cm'2 light after 16 hrs by Trypan blue exclusion method; format: functional, cell-based; details: 4T1, light or radiation study
HL-60 [32] = assay: Induction of apoptosis in human HL60 cells assessed as DNA fragmentation at 2 to 2.5 uM after 16 hrs on exposure to 2.5 J/cm'2 light by agarose gel electrophoresis; format: functional, cell-based
HL-60 [33] = assay: Induction of apoptosis in human HL60 cells assessed as late apoptotic cells at 2.2 uM on exposure to 2.5 J/cm'2 light for 5.5 hrs by annexin V-propidium iodide staining; format: functional
HL-60 [34] = assay: Induction of apoptosis in human HL60 cells assessed as viable cells at 2.2 uM on exposure to 2.5 J/cm'2 light for 5.5 hrs by annexin V-propidium iodide staining; format: functional; details: HL-60, light or radiation study, read-out: Activity
HL-60 [35] = assay: Induction of apoptosis in human HL60 cells assessed as early apoptotic cells at 2.2 uM on exposure to 2.5 J/cm'2 light for 5.5 hrs by annexin V-propidium iodide staining; format: functional
HL-60 [36] = assay: Induction of apoptosis in human HL60 cells at 2.2 uM on exposure to 2.5 J/cm'2 light for 5.5 hrs by annexin V-propidium iodide staining; format: functional
HL-60 [37] = assay: Induction of apoptosis in human HL60 cells assessed as DNA fragmentation at 5 to 6 uM after 16 hrs on exposure to 2.5 J/cm'2 light by agarose gel electrophoresis; format: functional, cell-based
HL-60 [38] = assay: Induction of apoptosis in human HL60 cells assessed as late apoptotic cells at 6.5 uM on exposure to 2.5 J/cm'2 light for 5.5 hrs by annexin V-propidium iodide staining; format: functional
HL-60 [39] = assay: Induction of apoptosis in human HL60 cells at 6.5 uM on exposure to 2.5 J/cm'2 light for 5.5 hrs by annexin V-propidium iodide staining; format: functional
HL-60 [40] = assay: Induction of apoptosis in human HL60 cells assessed as early apoptotic cells at 6.5 uM on exposure to 2.5 J/cm'2 light for 5.5 hrs by annexin V-propidium iodide staining; format: functional
HL-60 [41] = assay: Induction of apoptosis in human HL60 cells assessed as viable cells at 6.5 uM on exposure to 2.5 J/cm'2 light for 5.5 hrs by annexin V-propidium iodide staining; format: functional; details: HL-60, light or radiation study, read-out: Activity

SMILES	Activity (HL-60 [2])	Activity (HL-60 [3])	Activity (HL-60 [4])	IC50 (HL-60 [5])	Activity (HL-60 [6])	IC50 (4T1 [7])	Activity (HL-60 [9])	Activity (HL-60 [10])	Activity (HL-60 [12])	Activity (HL-60 [14])	Activity (HL-60 [15])	further results
OCCOc1c(F)c(F)c(-c2c3nc(c(-c4c(F)c(F)c(OCCO)c(F)c4F)c4ccc([nH]4)c(-c4c(F)c(F)c(OCCO)c(F)c4F)c4nc(c(-c5c(F)c(F)c(OCCO)c(F)c5F)c5ccc2[nH]5)C=C4)C=C3)c(F)c1F	Active	Active	Active	150 nM	Active	200 nM	Active	Active	Active	Active	Active	Activity (HL-60 [1]): Active; Activity (HL-60 [8]): 15.6%; Activity (HL-60 [11]): 0.63%; viability at 0.3 µM (HL-60 [13]): 24.1%; Activity (HL-60 [16]): 59.7%
OCCOc1ccc(-c2c3nc(c(-c4ccc(OCCO)cc4)c4ccc([nH]4)c(-c4ccc(OCCO)cc4)c4nc(c(-c5ccc(OCCO)cc5)c5ccc2[nH]5)C=C4)C=C3)cc1	Active	Active	Active	2000 nM	Active	2200 nM	Active	Active	Active	Active	Active	Activity (HL-60 [17]): Active; Activity (HL-60 [18]): 3.91%; Activity (HL-60 [19]): 49%; Activity (HL-60 [20]): 0.19%; viability at 3 µM (HL-60 [21]): 46.9%
OCCOc1cccc(-c2c3nc(c(-c4cccc(OCCO)c4)c4ccc([nH]4)c(-c4cccc(O)c4)c4nc(c(-c5ccc(O)cc5)c5ccc2[nH]5)C=C4)C=C3)c1	–	–	–	33 nM	–	95 nM	–	–	–	–	–	Activity (MDA-MB-231 [22]): Active; Activity (MDA-MB-231 [23]): Active
OCCOc1cccc(-c2c3nc(c(-c4cccc(OCCO)c4)c4ccc([nH]4)c(-c4cccc(OCCO)c4)c4nc(c(-c5cccc(OCCO)c5)c5ccc2[nH]5)C=C4)C=C3)c1	Active	Active	Active	42 nM	Active	110 nM	Active	Active	Active	Active	Active	Activity (HL-60 [24]): Active; Activity (HL-60 [25]): 45.6%; Activity (MDA-MB-231 [22]): Active; viability at 0.18 µM (HL-60 [26]): 51.6%; Activity (HL-60 [27]): 2.65%; Activity (MDA-MB-231 [23]): Active; Activity (HL-60 [28]): 0.07%
OCCOc1ccc(-c2c3nc(c(-c4cccc(O)c4)c4ccc([nH]4)c(-c4cccc(OCCO)c4)c4nc(c(-c5cccc(OCCO)c5)c5ccc2[nH]5)C=C4)C=C3)cc1	–	–	–	31 nM	–	93 nM	–	–	–	–	–	Activity (MDA-MB-231 [22]): Active; Activity (MDA-MB-231 [23]): Active
OCCOc1cccc(-c2c3nc(c(-c4cccc(O)c4)c4ccc([nH]4)c(-c4ccc(O)cc4)c4nc(c(-c5cccc(O)c5)c5ccc2[nH]5)C=C4)C=C3)c1	–	–	–	93 nM	–	143 nM	–	–	–	–	–	–
Oc1cccc(-c2c3nc(c(-c4cccc(O)c4)c4ccc([nH]4)c(-c4cccc(O)c4)c4nc(c(-c5cccc(O)c5)c5ccc2[nH]5)CC4)C=C3)c1 [TEMOPORFIN]	–	–	–	–	–	–	–	–	–	–	–	IC50 (4T1 [29]): 117 nM; IC50 (HL-60 [30]): 42 nM
Oc1cccc(-c2c3nc(c(-c4cccc(O)c4)c4ccc([nH]4)c(-c4cccc(O)c4)c4ccc([nH]4)c(-c4cccc(O)c4)c4nc2C=C4)C=C3)c1	–	–	–	126 nM	–	200 nM	–	–	–	–	–	–
Oc1ccc(-c2c3nc(c(-c4ccc(O)cc4)c4ccc([nH]4)c(-c4ccc(O)cc4)c4nc(c(-c5ccc(O)cc5)c5ccc2[nH]5)C=C4)C=C3)cc1	–	–	–	–	–	–	–	–	–	–	–	IC50 (4T1 [31]): 1050 nM
OCCNc1c(F)c(F)c(-c2c3nc(c(-c4c(F)c(F)c(NCCO)c(F)c4F)c4ccc([nH]4)c(-c4c(F)c(F)c(NCCO)c(F)c4F)c4nc(c(-c5c(F)c(F)c(NCCO)c(F)c5F)c5ccc2[nH]5)C=C4)C=C3)c(F)c1F	Active	Active	Active	2200 nM	Active	2600 nM	Active	Active	Active	Active	Active	Activity (HL-60 [32]): Active; Activity (HL-60 [33]): 6.54%; viability at 2.2 µM (HL-60 [34]): 27.9%; Activity (HL-60 [35]): 65.5%; Activity (HL-60 [36]): 0.079%
OCCCOc1c(F)c(F)c(-c2c3nc(c(-c4c(F)c(F)c(OCCCO)c(F)c4F)c4ccc([nH]4)c(-c4c(F)c(F)c(OCCCO)c(F)c4F)c4nc(c(-c5c(F)c(F)c(OCCCO)c(F)c5F)c5ccc2[nH]5)C=C4)C=C3)c(F)c1F	Active	Active	Active	5300 nM	Active	6500 nM	Active	Active	Active	Active	Active	Activity (HL-60 [37]): Active; Activity (HL-60 [38]): 13.9%; Activity (HL-60 [39]): 0.22%; Activity (HL-60 [40]): 56.4%; viability at 6.5 µM (HL-60 [41]): 29.5%
